In US20140011778A1, “2-METHYLENE-19,23,24-TRINOR-1ALPHA-HYDROXYVITAMIN D3” (Wisconsin Alumni Research Foundation, priority 2011, published 2014):
Read-outs that look alike come from different tables or passages of the source.

Key:
[1] = biological target: T1, Full-length recombinant rat receptor (vitamin D receptor) (Rattus norvegicus, UniProt P13053); settings: comparison compound from an earlier filing; read-out: Competitive VDR Binding, Ki; cited from earlier work
T1 construct: Full-length recombinant rat receptor was expressed in E. coli; histidine tag (C); made in house; host or cells: E. coli BL21(DE3) Codon Plus RIL
T1 sequence (P13053 1-423): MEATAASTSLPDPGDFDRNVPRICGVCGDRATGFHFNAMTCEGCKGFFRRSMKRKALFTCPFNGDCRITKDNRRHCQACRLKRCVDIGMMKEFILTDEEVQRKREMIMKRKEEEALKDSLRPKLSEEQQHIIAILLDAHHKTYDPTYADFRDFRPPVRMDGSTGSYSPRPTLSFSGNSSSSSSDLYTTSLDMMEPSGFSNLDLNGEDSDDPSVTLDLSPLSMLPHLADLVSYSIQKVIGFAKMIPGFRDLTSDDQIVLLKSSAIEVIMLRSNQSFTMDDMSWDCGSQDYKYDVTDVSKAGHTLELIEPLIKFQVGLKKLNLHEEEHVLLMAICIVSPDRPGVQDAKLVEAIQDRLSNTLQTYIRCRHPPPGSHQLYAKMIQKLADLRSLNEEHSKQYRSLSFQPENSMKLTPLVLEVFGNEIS

[2] = biological target: T1, Full-length recombinant rat receptor (vitamin D receptor); test: Vitamin D receptor competitive binding; settings: recombinant rat VDR, 3H-1,25(OH)2D3 1 nM
Procedure: Full-length recombinant rat receptor was expressed in E. coli BL21(DE3) Codon Plus RIL cells and purified to homogeneity using two different column chromatography systems. The first system was a nickel affinity resin that utilizes the C-terminal histidine tag on this protein. The protein that was eluted from this resin was further purified using ion exchange chromatography (S-Sepharose Fast Flow). Aliquots of the purified protein were quick frozen in liquid nitrogen and stored at −80° C. until use. For use in binding assays, the protein was diluted in TEDK50 (50 mM Tris, 1.5 mM EDTA, pH 7.4, 5 mM DTT, 150 mM KCl) with 0.1% Chaps detergent. The receptor protein and ligand concentration was optimized such that no more than 20% of the added radiolabeled ligand was bound to the receptor.
Unlabeled ligands were dissolved in ethanol and the concentrations determined using UV spectrophotometry (1,25(OH)2D3: molar extinction coefficient=18,200 and λmax=265 nm; Analogs: molar extinction coefficient=42,000 and λmax=252 nm). Radiolabeled ligand (^3H-1,25(OH)2D3, ˜159 Ci/mmole) was added in ethanol at a final concentration of 1 nM.
Radiolabeled and unlabeled ligands were added to 100 mcl of the diluted protein at a final ethanol concentration of ≦10%, mixed and incubated overnight on ice to reach binding equilibrium. […] Total binding was determined from the tubes containing only radiolabeled ligand.

[3] = test system: 24-hydroxylase (24OHase) gene promoter; test: In vitro transcription assay (24OHase promoter-luciferase in ROS 17/2.8 cells); format: cell-based; settings: for 24OHase Transcription (Relative Activity): (value for native hormone)/(value for working example), same assay
Procedure: Transcription activity was measured in ROS 17/2.8 (bone) cells that were stably transfected with a 24-hydroxylase (24OHase) gene promoter upstream of a luciferase reporter gene (Arbour et al., 1998). Cells were given a range of doses. Sixteen hours after dosing, the cells were harvested and luciferase activities were measured using a luminometer. RLU=relative luciferase units.

[4] = test system: Human promyelocytic leukemia (HL60) cells; test: HL-60 differentiation (nitro blue tetrazolium reduction); format: cell-based; settings: for HL-60 Differentiation (Relative Activity): (value for native hormone)/(value for working example), same assay; for EC50: Homo sapiens, 96 h, HL-60 cells into monocytes, 4 days
Procedure: The study drugs were dissolved in ethanol and the concentrations determined using UV spectrophotometry. Serial dilutions were prepared so that a range of drug concentrations could be tested without changing the final concentration of ethanol (≦0.2%) present in the cell cultures.
Human promyelocytic leukemia (HL60) cells were grown in RPMI-1640 medium containing 10% fetal bovine serum. The cells were incubated at 37° C. in the presence of 5% CO2.
HL60 cells were plated at 1.2×10^5 cells/ml. Eighteen hours after plating, cells in duplicate were treated with the drug. Four days later, the cells were harvested and a nitro blue tetrazolium reduction assay was performed (Collins et al., 1979; J. Exp. Med. 149:969-974). The percentage of differentiated cells was determined by counting a total of 200 cells and recording the number that contained intracellular black-blue formazan deposits. Verification of differentiation to monocytic cells was determined by measuring phagocytic activity (data not shown).

[5] = test system: Sprague-Dawley rats; test: Intestinal calcium transport (everted gut sac); format: in vivo, rat; settings: for serosal calcium to mucosal calcium ratio: rat, at 780 pM (so in the source)
Procedure: Male, weanling Sprague-Dawley rats were placed on Diet 11 (0.47% Ca) diet+AEK oil for one week followed by Diet 11 (0.02% Ca)+AEK oil for 3 weeks. The rats were then switched to a diet containing 0.47% Ca for one week followed by two weeks on a diet containing 0.02% Ca. Dose administration began during the last week on 0.02% calcium diet. Four consecutive intraperitoneal doses were given approximately 24 hours apart. Twenty-four hours after the last dose, blood was collected from the severed neck and the concentration of serum calcium determined as a measure of bone calcium mobilization. The first 10 cm of the intestine was also collected for intestinal calcium transport analysis using the everted gut sac method.

[6] = ROS 17/2.8 cells, luciferase, 16 h, read-out: 24OHase Transcription, EC50

| Ki [2] [nM] | EC50 [3, 6] [nM] | EC50 [4] [nM] | SMILES | Ki [1] [nM] | 24OHase Transcription (Relative Activity) [3] | HL-60 Differentiation (Relative Activity) [4] | serosal calcium to mucosal calcium ratio [5] | other results |
| --- | --- | --- | --- | --- | --- | --- | --- | --- |
|  |  |  | C=C1C(O)CC(=CC=C2CCCC3(C)C2CCC3C(C)CCC)CC1O [2MtrisP, 2-methylene-19-nor-(20S)-1α-hydroxytrishomopregnacalciferol] | 0.075 |  |  |  |  |
|  |  |  | C=C1C(O)CC(=CC=C2CCCC3(C)C2CCC3C(C)CC)CC1O [(20R)-2MbisP, 2-methylene-19-nor-(20R)-1α-hydroxybishomopregnacalciferol] | 0.078 |  |  |  |  |
| 4 | 100 | 6000 | C=C1[C@H](O)CC(=C/C=C2\CCC[C@]3(C)[C@@H]([C@H](C)CC(C)C)CC[C@@H]23)C[C@H]1O [RMB, (20R)-2-methylene-19,23,24-trinor-1α-hydroxyvitamin D3] |  | 0.003 | 0.0005 | 0.9 | less active than (20R)-2MbisP in hydroxylase transcription ([3]; ratio of relative activities 0.05/0.003): more than 16 times; less active than (20R)-2MbisP in differentiation of HL-60 cells ([4]; ratio of relative activities 0.18/0.0005): approximately 360 times |
| 0.4 | 8 | 40 | C=C1[C@H](O)CC(=C/C=C2\CCC[C@]3(C)[C@@H]([C@@H](C)CC(C)C)CC[C@@H]23)C[C@H]1O [SMB, (20S)-2-methylene-19,23,24-trinor-1α-hydroxyvitamin D3] |  | 0.04 | 0.08 |  | EC50 ([3]; FIG. 3, read-out: EC50 with respect to increasing transcription of the 24-hydroxylase gene): 8000 nM; less active than 2MtrisP in HL-60 differentiation, normalized against native hormone ([4]; ratio of relative activities 1.2/0.08): ≈ 15; intestinal calcium transport activity lower than that of the native hormone ([5]; 7020 pmol SMB similar to 87 pmol native hormone): approximately 80 times |
|  |  |  | C=C1/C(=C\C=C2/CCC[C@]3(C)[C@@H]([C@H](C)CCCC(C)(C)O)CC[C@@H]23)C[C@@H](O)C[C@@H]1O [native hormone, 1α,25-dihydroxyvitamin D3, reference compound] |  |  |  | 4.1 |  |
